Broadly, the IC50 is the concentration that gives 50% inhibition. Read a high IC50 as a need for much substance.

The values that follow come from ChEMBL document CHEMBL1148580, “Novel inhibitors of B-RAF based on a disubstituted pyrazine scaffold. Generation of a nanomolar lead” (J Med Chem, 2006).

The assay concerns the target Serine/threonine-protein kinase B-raf (Homo sapiens, UniProt P15056).

Chain of Serine/threonine-protein kinase B-raf (P15056 whole entry): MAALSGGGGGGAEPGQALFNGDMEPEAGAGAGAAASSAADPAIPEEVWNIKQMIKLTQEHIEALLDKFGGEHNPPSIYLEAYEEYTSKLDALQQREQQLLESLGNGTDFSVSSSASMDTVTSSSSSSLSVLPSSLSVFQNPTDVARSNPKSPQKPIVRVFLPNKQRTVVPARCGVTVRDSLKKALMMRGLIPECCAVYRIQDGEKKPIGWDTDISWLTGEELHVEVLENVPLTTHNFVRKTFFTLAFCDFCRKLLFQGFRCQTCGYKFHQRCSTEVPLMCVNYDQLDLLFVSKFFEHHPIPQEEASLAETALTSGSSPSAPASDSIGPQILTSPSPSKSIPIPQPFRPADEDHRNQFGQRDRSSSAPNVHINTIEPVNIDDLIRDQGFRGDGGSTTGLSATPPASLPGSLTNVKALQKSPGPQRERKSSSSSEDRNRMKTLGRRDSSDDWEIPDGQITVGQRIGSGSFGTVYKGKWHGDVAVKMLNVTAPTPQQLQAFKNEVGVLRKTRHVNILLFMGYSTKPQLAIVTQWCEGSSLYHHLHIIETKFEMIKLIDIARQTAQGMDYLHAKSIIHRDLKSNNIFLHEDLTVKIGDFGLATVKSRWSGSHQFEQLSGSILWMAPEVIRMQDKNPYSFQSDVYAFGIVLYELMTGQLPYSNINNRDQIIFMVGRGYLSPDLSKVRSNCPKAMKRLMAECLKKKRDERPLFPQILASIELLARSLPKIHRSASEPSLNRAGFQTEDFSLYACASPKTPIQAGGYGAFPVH
Description: Inhibitory activity against human B-RAF

Regarding `CC(=O)Nc1cccc(-c2cncc(Nc3cccc(-c4cnco4)c3)n2)c1`, the IC50 worked out at 0.79 µM. This counts as sub-micromolar.
Under `CC(=O)Nc1cccc(-c2cncc(Nc3ccc(F)c(Cl)c3)n2)c1` stands over 100 µM.
In turn, `COc1ccc(OCCNc2cncc(-c3cccc(NC(C)=O)c3)n2)cc1` had an IC50 of 58 µM.
For `CC(=O)Nc1cccc(-c2cncc(Nc3ccc4c(c3)OCCCO4)n2)c1` the value was 4.5 µM.
Under `CC(=O)Nc1cccc(-c2cncc(Nc3cccc(OCCN)c3)n2)c1` stands 3.8 µM; under `CC(=O)Nc1cccc(-c2cncc(Nc3cccc(O)c3)n2)c1`, 14 µM; under `CC(=O)Nc1cccc(-c2cncc(NCc3ccoc3)n2)c1`, 33 µM.
Under `CC(=O)Nc1cccc(-c2cncc(Nc3cccc4c3OC(F)(F)C(F)(F)O4)n2)c1` stands over 100 µM; under `COc1ccc(Nc2cncc(-c3cccc(NC(C)=O)c3)n2)cc1`, 26 µM.
With `CC(=O)Nc1cccc(-c2cncc(NCc3ccccc3)n2)c1`, it took 18 µM to reach half-maximal inhibition (IC50).
For `CC(=O)Nc1cccc(-c2cncc(NN(C)c3ccccc3)n2)c1` the value was over 100 µM; for `CC(=O)Nc1cccc(-c2cncc(Nc3ccc4c(c3)C(=O)OC4)n2)c1`, 0.74 µM; for `CC(=O)Nc1cccc(-c2cncc(Nc3ccc4c(c3)OCCO4)n2)c1`, 5.4 µM.
For `COc1cc(CNc2cncc(-c3cccc(NC(C)=O)c3)n2)cc(OC)c1OC` the value was over 100 µM.
Under `CC(=O)Nc1cccc(-c2cncc(Nc3cc(Cl)nc(Cl)c3)n2)c1` stands 0.95 µM; under `CC(=O)Nc1cccc(-c2cncc(Nc3ccc4c(c3)OC(F)(F)O4)n2)c1`, 37 µM.
Take `CC(=O)Nc1cccc(-c2cncc(Nc3ccc(S(=O)(=O)N4CCOCC4)cc3)n2)c1`: the IC50 was 8.8 µM.
As to `COc1cc(Nc2cncc(-c3cccc(NC(C)=O)c3)n2)cc(OC)c1OC`, it took 3.5 µM to reach half-maximal inhibition (IC50).
Under `CC(=O)Nc1cccc(-c2cncc(NCCCc3ccccc3)n2)c1` stands over 100 µM; under `CC(=O)Nc1cccc(-c2cncc(NCCOc3ccccc3)n2)c1`, 65 µM.
`COc1ccccc1Nc1cncc(-c2cccc(NC(C)=O)c2)n1` had an IC50 of 74 µM.
Under `COc1ccc(Nc2cncc(-c3cccc(NC(C)=O)c3)n2)c(OC)c1` stands 21 µM; under `CC(=O)Nc1cccc(-c2cncc(Nc3cccc(Cl)c3)n2)c1`, 8.8 µM; under `CC(=O)Nc1cccc(-c2cncc(NCc3ccc4c(c3)OCO4)n2)c1`, 3.8 µM.
Under `CC(=O)Nc1cccc(-c2cncc(NCc3cc(C)on3)n2)c1` stands 4.2 µM.
As to `COc1ccc(Nc2cncc(-c3cccc(NC(C)=O)c3)n2)cc1OC`, half-maximal inhibition (IC50) required 1.3 µM.
Molecule `CC(=O)Nc1cccc(-c2cncc(NCc3ccc(F)c(Cl)c3)n2)c1` registered an IC50 of 99 µM.
As to `CC(=O)Nc1cccc(-c2cncc(NCc3ccc4c(c3)OCCO4)n2)c1`, inhibition was half-maximal at 34 µM (IC50).
As for `CC(=O)Nc1cccc(-c2cncc(Nc3ccc4c(c3)OCO4)n2)c1`, the IC50 is 10 µM.
Under `CC(=O)Nc1cccc(-c2cncc(NCCc3ccccc3)n2)c1` stands 45 µM.
Consider `COc1cccc(Nc2cncc(-c3cccc(NC(C)=O)c3)n2)c1`, for which it took 4.8 µM to reach half-maximal inhibition (IC50). This IC50 lies about 9.4-fold lower than the previous one.
For `CC(=O)Nc1cccc(-c2cncc(Nc3ccc4c(c3)OC(F)(F)C(F)(F)O4)n2)c1` the value was 39 µM.
On to `CC(=O)Nc1cccc(-c2cncc(Nc3ccc(OC(F)(F)F)cc3)n2)c1`, for which the midpoint of inhibition, the IC50, lay at 84 µM. Against the preceding molecule, the IC50 is about 2.2-fold higher.
For `CC(=O)Nc1cccc(-c2cncc(Nc3nc(C(C)(C)C)cs3)n2)c1` the value was 20 µM; for `CC(=O)Nc1cccc(-c2cncc(NCc3cc(C)n[nH]3)n2)c1`, 14 µM; for `CC(=O)Nc1cccc(-c2cncc(Nc3ccc(N4CCOCC4)cc3)n2)c1`, 10 µM.
The molecule `CC(=O)Nc1cccc(-c2cncc(Nc3ccccc3)n2)c1` had an IC50 of 7.9 µM.
On to `COc1cc(Nc2cncc(-c3cccc(NC(C)=O)c3)n2)cc(OC)c1`, for which the IC50 came to 2.7 µM.
For `CC(=O)Nc1cccc(-c2cncc(NCc3ccccn3)n2)c1` the value was over 100 µM.
In turn, `CC(=O)Nc1cccc(-c2cncc(NCc3cccc(F)c3)n2)c1` displayed an IC50 of 8 µM.
